Measured values: patent publication US7989649B2, “Tumor imaging compounds” (Emory University, priority 2002, dated 2011)

Assays:
[1] = tested on: 9 L gliosarcoma tumor; assay: Biodistribution in Fischer rats with intracranial 9 L gliosarcoma tumor; format: in vivo; conditions: for Tissue distribution of radioactivity, Blood / Tissue distribution of radioactivity, Bone / Tissue distribution of radioactivity, Heart / Tissue distribution of radioactivity, Kidney / Tissue distribution of radioactivity, Liver / Tissue distribution of radioactivity, Lung / Tissue distribution of radioactivity, Muscle / Tissue distribution of radioactivity, Pancreas / Tissue distribution of radioactivity, Spleen / Tissue distribution of radioactivity, Testis / Tissue distribution of radioactivity, Tumor / Tissue distribution of radioactivity, Brain: tumor-bearing Fischer rats; for Tissue distribution of radioactivity, Brain: normal brain contralateral to tumor
Protocol: Tumor induction and animal preparation. All animal experiments were carried out under humane conditions and were approved by the Institutional Animal Use and Care Committee (IUCAC) at Emory University. Rat 9 L gliosarcoma cells were implanted into the brains of male Fischer rats as described previously [Shoup, T M et al. (1999), J. Nucl. Med. 40:331-338]. Briefly, anesthetized rats placed in a stereotactic head holder were injected with a suspension of 4×10^4 rat 9 L gliosarcoma cells (1×10^7 per mL) in a location 3 mm right of midline and 1 mm anterior to the bregma at a depth of 5 mm deep to the outer table. The injection was performed over the course of 2 minutes, and the needle was withdrawn over the course of 1 minute to minimize the backflow of tumor cells. The burr hole and scalp incision were closed, and the animals were returned to their original colony after recovering from the procedure. Intracranial tumors developed that produced weight loss, apathy and hunched posture in the tumor-bearing rats, and the animals were used at 17-19 days after implantation. Of the 30 animals implanted with tumor cells, 25 developed tumors visible to the naked eye upon dissection and were used in the study.
The tissue distribution of radioactivity was also determined in tumor-bearing Fischer 344 rats following intravenous injection of ˜35 μCi of [^18F]5a or [^18F]5b in 0.3 mL of sterile water. The procedure was similar to that already described for normal rats with the following modifications. The tail vein injections were performed in awake animals using a RTV-190 rodent restraint device (Braintree Scientific) to avoid mortality accompanying anesthesia in the presence of an intracranial mass. The animals were killed at 5 minutes, 60 minutes or 120 minutes post-injection. The same tissues were assayed as in normal rats with the addition of the tumor tissue, and the corresponding region of brain contralateral to the tumor was excised and used for comparison. The uptake in the tumor and contralateral brain at each time point was compared via a two-tailed t-test for paired observations (GraphPad Prism software package).

[2] = tested on: 9 L gliosarcoma cells; assay: Amino acid uptake inhibition assay in 9 L gliosarcoma cells; format: cell-based, rat; conditions: for uptake of activity blocked by BCH relative to controls: BCH 10 mM; for uptake of activity blocked by BCH relative to controls / uptake of activity blocked by N-MeAIB relative to controls: 30 minutes, 9 L gliosarcoma cells; for uptake of activity blocked by N-MeAIB relative to controls: N-MeAIB 10 mM; for intracellular accumulation in 9 L gliosarcoma cells: absence of inhibitors, 30 minutes of incubation; for substrate for A-type amino acid transport system: based on inhibition of uptake by N-MeAIB
Protocol: Amino acid uptake inhibition assays. The 9 L gliosarcoma cells were initially grown as monolayers in T-flasks containing Dulbecco's Modified Eagle's Medium (DMEM) under humidified incubator conditions (37° C., 5% CO2/95% air). The growth media was supplemented with 10% fetal calf serum and antibiotics (10,000 units/ml penicillin and 10 mg/ml streptomycin). The growth media was replaced three times per week, and the cells were passaged so the cells would reach confluency in a week's time.
When the monolayers were confluent, cells were prepared for experimentation in the following manner. Growth media was removed from the T-flask, and the monolayer cells were exposed to 1× trypsin:EDTA for ˜1 minute to weaken the protein attachments between the cells and the flask. The flask was then slapped, causing the cells to release. Supplemented media was added to inhibit the proteolytic action of the trypsin, and the cells were aspirated through an 18 Ga needle until they were monodisperse. A sample of the cells was counted under a microscope using a hemocytometer, and the live/dead fraction estimated through trypan blue staining (>98% viability). The remainder of the cells was placed into a centrifuge tube, centrifuged at 75 G for 5 minutes, and the supernatant was removed. The cells were then resuspended in amino-acid/serum-free DMEM salts.
In this study, approximately 4.55×10^5 cells were exposed to either [^18F]5a or [^18F]5b (5 μCi) in 3 ml of amino acid free media±transporter inhibitors (10 mM) for 30 minutes under incubator conditions in 12×75 mm glass vials. Each assay condition was performed in duplicate. After incubation, cells were twice centrifuged (75 G for 5 minutes) and rinsed with ice-cold amino-acid/serum-free DMEM salts to remove residual activity in the supernatant. The vials were placed in a Packard Cobra II Auto-Gamma counter, the raw counts decay corrected, and the activity per cell number determined. The data from these studies (expressed as percent uptake relative to control) were graphed using Excel, with statistical comparisons between the groups analyzed using a 1-way ANOVA (GraphPad Prism software package).

[3] = 60 min after injection, listed as [^18F]FAMP (5a)
[4] = 120 min after injection, listed as [^18F]FAMP (5a)
[5] = 60 min after injection, listed as [^18F]N-MeFAMP (5b)
[6] = 120 min after injection, listed as [^18F]N-MeFAMP (5b)

Compound: CC(N)(CF)C(=O)O (racemic) [[^18F]5a, 2-amino-3-fluoro-2-methylpropanoic acid]
- Tissue distribution of radioactivity, Blood ([1]; 5 min after injection): 0.72 ± 0.05 percent dose per gram
- Tissue distribution of radioactivity, Bone ([1]; 5 min after injection): 0.38 ± 0.04 percent dose per gram
- Tissue distribution of radioactivity, Heart ([1]; 5 min after injection): 0.40 ± 0.04 percent dose per gram
- Tissue distribution of radioactivity, Kidney ([1]; 5 min after injection): 8.66 ± 1.27 percent dose per gram
- Tissue distribution of radioactivity, Liver ([1]; 5 min after injection): 0.77 ± 0.22 percent dose per gram
- Tissue distribution of radioactivity, Lung ([1]; 5 min after injection): 0.84 ± 0.03 percent dose per gram
- Tissue distribution of radioactivity, Muscle ([1]; 5 min after injection): 0.39 ± 0.02 percent dose per gram
- Tissue distribution of radioactivity, Pancreas ([1]; 5 min after injection): 5.31 ± 0.68 percent dose per gram
- Tissue distribution of radioactivity, Spleen ([1]; 5 min after injection): 0.72 ± 0.06 percent dose per gram
- Tissue distribution of radioactivity, Testis ([1]; 5 min after injection): 0.22 ± 0.02 percent dose per gram
- Tissue distribution of radioactivity, Tumor ([1]; 5 min after injection): 0.91 percent dose per gram
- Tissue distribution of radioactivity, Tumor ([1]; 5 min after injection, listed as [^18F]FAMP (5a)): 0.91 ± 0.05 percent dose per gram
- Tissue distribution of radioactivity, Blood ([1]; 60 min after injection): 0.26 ± 0.03 percent dose per gram
- Tissue distribution of radioactivity, Bone ([1]; 60 min after injection): 0.25 ± 0.05 percent dose per gram
- Tissue distribution of radioactivity, Heart ([1]; 60 min after injection): 0.33 ± 0.06 percent dose per gram
- Tissue distribution of radioactivity, Kidney ([1]; 60 min after injection): 6.20 ± 1.45 percent dose per gram
- Tissue distribution of radioactivity, Liver ([1]; 60 min after injection): 0.66 ± 0.16 percent dose per gram
- Tissue distribution of radioactivity, Lung ([1]; 60 min after injection): 0.38 ± 0.04 percent dose per gram
- Tissue distribution of radioactivity, Muscle ([1]; 60 min after injection): 0.31 ± 0.03 percent dose per gram
- Tissue distribution of radioactivity, Pancreas ([1]; 60 min after injection): 2.86 ± 0.34 percent dose per gram
- Tissue distribution of radioactivity, Spleen ([1]; 60 min after injection): 0.55 ± 0.08 percent dose per gram
- Tissue distribution of radioactivity, Testis ([1]; 60 min after injection): 0.14 ± 0.02 percent dose per gram
- Tissue distribution of radioactivity, Tumor ([1]; 60 min after injection): 1.96 percent dose per gram
- Tissue distribution of radioactivity, Tumor [1, 3]: 1.96 ± 0.10 percent dose per gram
- Tissue distribution of radioactivity, Blood ([1]; 120 min after injection): 0.16 ± 0.01 percent dose per gram
- Tissue distribution of radioactivity, Bone ([1]; 120 min after injection): 0.16 ± 0.01 percent dose per gram
- Tissue distribution of radioactivity, Heart ([1]; 120 min after injection): 0.22 ± 0.02 percent dose per gram
- Tissue distribution of radioactivity, Kidney ([1]; 120 min after injection): 3.64 ± 0.26 percent dose per gram
- Tissue distribution of radioactivity, Liver ([1]; 120 min after injection): 0.25 ± 0.02 percent dose per gram
- Tissue distribution of radioactivity, Lung ([1]; 120 min after injection): 0.24 ± 0.03 percent dose per gram
- Tissue distribution of radioactivity, Muscle ([1]; 120 min after injection): 0.21 ± 0.01 percent dose per gram
- Tissue distribution of radioactivity, Pancreas ([1]; 120 min after injection): 1.42 ± 0.17 percent dose per gram
- Tissue distribution of radioactivity, Spleen ([1]; 120 min after injection): 0.32 ± 0.02 percent dose per gram
- Tissue distribution of radioactivity, Testis ([1]; 120 min after injection): 0.11 ± 0.003 percent dose per gram
- Tissue distribution of radioactivity, Tumor ([1]; 120 min after injection): 1.87 percent dose per gram
- Tissue distribution of radioactivity, Tumor [1, 4]: 1.87 ± 0.2 percent dose per gram
- Tissue distribution of radioactivity, Brain ([1]; 5 min after injection): 0.035 ± 0.002 percent dose per gram
- Tissue distribution of radioactivity, Brain ([1]; 60 min after injection): 0.054 percent dose per gram
- Tissue distribution of radioactivity, Brain [1, 3]: 0.054 ± 0.01 percent dose per gram
- Tissue distribution of radioactivity, Brain ([1]; 120 min after injection): 0.050 percent dose per gram
- Tissue distribution of radioactivity, Brain [1, 4]: 0.050 ± 0.004 percent dose per gram
- uptake in normal brain tissue contralateral to the tumor ([1]; tumor-bearing rats, each time point (5, 60, 120 minutes)): approximately 0.05 % ID/g
- uptake of activity blocked by BCH relative to controls [2]: 48%
- uptake of activity blocked by N-MeAIB relative to controls [2]: 80%
- intracellular accumulation in 9 L gliosarcoma cells [2]: 0.43 % of the initial dose per million cells
- substrate for non-A transport system ([2]; based on inhibition of uptake by BCH): substrate in vitro for at least one non-A transport system, possibly system L
- substrate for A-type amino acid transport system [2]: substrates for the A-type amino acid transport system

Compound: CNC(C)(CF)C(=O)O (racemic) [[^18F]5b, 3-fluoro-2-methyl-2-(methylamino)propanoic acid]
- Tissue distribution of radioactivity, Blood ([1]; 5 min after injection): 0.69 ± 0.04 percent dose per gram
- Tissue distribution of radioactivity, Bone ([1]; 5 min after injection): 0.33 ± 0.04 percent dose per gram
- Tissue distribution of radioactivity, Heart ([1]; 5 min after injection): 0.34 ± 0.02 percent dose per gram
- Tissue distribution of radioactivity, Kidney ([1]; 5 min after injection): 9.33 ± 0.36 percent dose per gram
- Tissue distribution of radioactivity, Liver ([1]; 5 min after injection): 0.94 ± 0.12 percent dose per gram
- Tissue distribution of radioactivity, Lung ([1]; 5 min after injection): 0.61 ± 0.04 percent dose per gram
- Tissue distribution of radioactivity, Muscle ([1]; 5 min after injection): 0.22 ± 0.011 percent dose per gram
- Tissue distribution of radioactivity, Pancreas ([1]; 5 min after injection): 2.95 ± 0.58 percent dose per gram
- Tissue distribution of radioactivity, Spleen ([1]; 5 min after injection): 0.47 ± 0.04 percent dose per gram
- Tissue distribution of radioactivity, Testis ([1]; 5 min after injection): 0.19 ± 0.008 percent dose per gram
- Tissue distribution of radioactivity, Tumor ([1]; 5 min after injection): 1.29 percent dose per gram
- Tissue distribution of radioactivity, Tumor ([1]; 5 min after injection, listed as [^18F]N-MeFAMP (5b)): 1.29 ± 0.28 percent dose per gram
- Tissue distribution of radioactivity, Blood ([1]; 60 min after injection): 0.17 ± 0.02 percent dose per gram
- Tissue distribution of radioactivity, Bone ([1]; 60 min after injection): 0.23 ± 0.04 percent dose per gram
- Tissue distribution of radioactivity, Heart ([1]; 60 min after injection): 0.25 ± 0.03 percent dose per gram
- Tissue distribution of radioactivity, Kidney ([1]; 60 min after injection): 2.79 ± 0.31 percent dose per gram
- Tissue distribution of radioactivity, Liver ([1]; 60 min after injection): 0.85 ± 0.17 percent dose per gram
- Tissue distribution of radioactivity, Lung ([1]; 60 min after injection): 0.26 ± 0.03 percent dose per gram
- Tissue distribution of radioactivity, Muscle ([1]; 60 min after injection): 0.19 ± 0.02 percent dose per gram
- Tissue distribution of radioactivity, Pancreas ([1]; 60 min after injection): 2.42 ± 0.27 percent dose per gram
- Tissue distribution of radioactivity, Spleen ([1]; 60 min after injection): 0.45 ± 0.06 percent dose per gram
- Tissue distribution of radioactivity, Testis ([1]; 60 min after injection): 0.08 ± 0.008 percent dose per gram
- Tissue distribution of radioactivity, Tumor ([1]; 60 min after injection): 2.28 percent dose per gram
- Tissue distribution of radioactivity, Tumor [1, 5]: 2.28 ± 0.16 percent dose per gram
- Tissue distribution of radioactivity, Blood ([1]; 120 min after injection): 0.10 ± 0.007 percent dose per gram
- Tissue distribution of radioactivity, Bone ([1]; 120 min after injection): 0.19 ± 0.02 percent dose per gram
- Tissue distribution of radioactivity, Heart ([1]; 120 min after injection): 0.19 ± 0.02 percent dose per gram
- Tissue distribution of radioactivity, Kidney ([1]; 120 min after injection): 1.59 ± 0.19 percent dose per gram
- Tissue distribution of radioactivity, Liver ([1]; 120 min after injection): 0.41 ± 0.06 percent dose per gram
- Tissue distribution of radioactivity, Lung ([1]; 120 min after injection): 0.19 ± 0.011 percent dose per gram
- Tissue distribution of radioactivity, Muscle ([1]; 120 min after injection): 0.16 ± 0.012 percent dose per gram
- Tissue distribution of radioactivity, Pancreas ([1]; 120 min after injection): 1.74 ± 0.24 percent dose per gram
- Tissue distribution of radioactivity, Spleen ([1]; 120 min after injection): 0.40 ± 0.02 percent dose per gram
- Tissue distribution of radioactivity, Testis ([1]; 120 min after injection): 0.08 ± 0.005 percent dose per gram
- Tissue distribution of radioactivity, Tumor ([1]; 120 min after injection): 1.94 percent dose per gram
- Tissue distribution of radioactivity, Tumor [1, 6]: 1.94 ± 0.12 percent dose per gram
- Tissue distribution of radioactivity, Brain ([1]; 5 min after injection): 0.032 ± 0.002 percent dose per gram
- Tissue distribution of radioactivity, Brain ([1]; 60 min after injection): 0.022 percent dose per gram
- Tissue distribution of radioactivity, Brain [1, 5]: 0.022 ± 0.006 percent dose per gram
- Tissue distribution of radioactivity, Brain ([1]; 120 min after injection): 0.020 percent dose per gram
- Tissue distribution of radioactivity, Brain [1, 6]: 0.020 ± 0.005 percent dose per gram
- uptake of activity blocked by BCH relative to controls [2]: 33%
- uptake of activity blocked by N-MeAIB relative to controls [2]: 88%
- intracellular accumulation in 9 L gliosarcoma cells [2]: 0.50 % of the initial dose per million cells
- substrate for A-type amino acid transport system [2]: substrates for the A-type amino acid transport system
- selectivity for A-type amino acid transport ([2]; compared with [18F]5a): more selective substrate for the A-type amino transport system than [^18F]5a
